# Laboratory results published in patent publication US9708336B2, “Metallo-beta-lactamase inhibitors” (priority 2014, dated 2017).
# Structures can show the parent of a compound that is named as a salt. Where two headings read alike, the source gives them in different places.
# What was measured:
# NDM-1 = NDM-1 (Klebsiella pneumoniae, UniProt C7C422); test: biochemical; assay type: biochemical; details: read-out: NDM-1 IC50
# Protocol: Enzyme Activity: Determination of IC50
# The Class B enzyme activities were measured in the presence of the test inhibitor in a fluorescence assay against a commercially available substrate consisting of a cephalosporin core linking 7-hydroxycoumarin to fluorescein (CCF2-FA). The enzyme (NDM-1, IMP-1 or VIM-1) and the substrate were diluted in 100 mM KH2PO4 buffer (pH 7) containing 0.005% Tween-20 and 10 μM ZnSO4. […] The test inhibitor was dissolved in dimethylsulfoxide and diluted 1:50 in the assay, resulting in a final concentration range of 20 uM to 0.00063 uM. In a 384-well microplate, the test inhibitor was incubated with the metallo-β-lactamase enzyme and the substrate for 2 hours at 25° C. Fluorescence at 460 nm following excitation at 405 nm was measured. The IC50 value was determined from semi-logarithmic plots of enzyme inhibition versus inhibitor concentration, with a curve generated using a 4-parameter fit.
# IMP-1 = IMP-1 (Serratia marcescens, UniProt P52699); test: biochemical; assay type: biochemical; details: read-out: IMP-1 IC50
# IMP-1, sequence (P52699 whole entry, looked up): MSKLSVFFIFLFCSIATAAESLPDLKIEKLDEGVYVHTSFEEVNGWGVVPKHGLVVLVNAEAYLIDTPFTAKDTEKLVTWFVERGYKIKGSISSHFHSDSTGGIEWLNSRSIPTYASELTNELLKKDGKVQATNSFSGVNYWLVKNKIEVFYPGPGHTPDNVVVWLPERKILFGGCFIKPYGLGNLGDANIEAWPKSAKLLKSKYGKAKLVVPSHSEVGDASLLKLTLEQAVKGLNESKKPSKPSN
# VIM-1 = VIM-1 (Pseudomonas aeruginosa (strain ATCC 15692 / DSM 22644 / CIP 104116 / JCM 14847 / LMG 12228 / 1C / PRS 101 / PAO1), UniProt A0A0F7KYQ8); test: Enzyme activity: determination of IC50, fluorescence assay with CCF2-FA substrate (VIM-1); assay type: biochemical
# [1] = system: Escherichia coli expressing NDM-1 (CLB30005); test: Antibiotic potentiation activity: synergistic concentration (MITC95) with imipenem, OD600 growth; assay type: cell-based; details: for Escherichia coli MITC95: Escherichia coli expressing NDM-1 (CLB30005), 95% growth inhibition; for Escherichia coli expressing NDM-1 (CLB 30005) MITC95: concentration giving 95% inhibition of bacterial growth
# Procedure, shortened: (§1)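 Absorbance after a 22–24 h, 35 °C incubation served as the read-out. Wells held bacteria (saline suspension diluted 1:100 into 1.1× CAMHB), imipenem at 4 μg/ml final or optionally 1 μg/ml, and test compound.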
# [2] = system: Escherichia coli expressing NDM-1 (CLB30016); test: as above; assay type: cell-based; details: for Escherichia coli MITC95: Escherichia coli expressing NDM-1 (CLB30016), 95% growth inhibition; for Escherichia coli expressing NDM-1 (CLB 30016) MITC95: concentration giving 95% inhibition of bacterial growth
# Procedure, shortened: as §1
# [3] = system: Klebsiella pneumoniae expressing VIM-1 (IHMA599644); test: as above; assay type: cell-based; details: for Klebsiella pneumoniae MITC95: Klebsiella pneumoniae expressing VIM-1 (IHMA599644), 95% growth inhibition; for Klebsiella pneumoniae expressing VIM-1 (IHMA 599644) MITC95: concentration giving 95% inhibition of bacterial growth
# Procedure, shortened: as §1
# [4] = system: Serratia marcescens expressing IMP-1 (CL5741); test: as above; assay type: cell-based; details: for Serratia marcescens MITC95: Serratia marcescens expressing IMP-1 (CL5741), 95% growth inhibition; for Serratia marcescens expressing IMP-1 (CL5741) MITC95: concentration giving 95% inhibition of bacterial growth
# Procedure, shortened: as §1
# [5] = NDM-1 enzyme, CCF2-FA fluorescence assay
# [6] = IMP-1 enzyme, CCF2-FA fluorescence assay
# [7] = VIM-1 enzyme, CCF2-FA fluorescence assay, read-out: VIM-1 IC50
# [8] = fluorescence assay with CCF2-FA substrate
# [9] = VIM-1 IC50, fluorescence assay with CCF2-FA substrate
# [10] = fluorescence assay with CCF2-FA substrate, read-out: VIM-1 IC50
# NDM-1, sequence (C7C422 whole entry, looked up, species assumed): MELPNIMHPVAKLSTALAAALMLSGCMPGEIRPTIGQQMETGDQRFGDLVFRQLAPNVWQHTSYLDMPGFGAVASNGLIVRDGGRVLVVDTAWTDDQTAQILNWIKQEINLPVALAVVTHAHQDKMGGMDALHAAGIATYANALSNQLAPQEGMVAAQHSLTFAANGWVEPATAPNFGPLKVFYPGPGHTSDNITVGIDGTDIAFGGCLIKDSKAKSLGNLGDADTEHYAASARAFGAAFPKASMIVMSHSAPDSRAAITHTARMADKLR
SMILES,IC50 (NDM-1; [5]) [µM],IC50 (IMP-1; [6]) [µM],IC50 (VIM-1; [7]) [µM],Escherichia coli MITC95 [1] [µM],Escherichia coli MITC95 [2] [µM],Klebsiella pneumoniae MITC95 [3] [µM],Serratia marcescens MITC95 [4] [µM],IC50 (NDM-1; [8]) [µM],IC50 (IMP-1; [8]) [µM],IC50 (VIM-1; [9]) [µM],Escherichia coli expressing NDM-1 (CLB 30005) MITC95 [1] [µM],Escherichia coli expressing NDM-1 (CLB 30016) MITC95 [2] [µM],Klebsiella pneumoniae expressing VIM-1 (IHMA 599644) MITC95 [3] [µM],Serratia marcescens expressing IMP-1 (CL5741) MITC95 [4] [µM],IC50 (VIM-1; [10]) [µM]
"NS(=O)(=O)c1cccc(-c2cnc3cc[nH]c3c2)c1-c1nn[nH]n1 [Example 310, 3-(1H-pyrrolo[3,2-b]pyridin-6-yl)-2-(2H-tetrazol-5-yl)benzenesulfonamide]",0.000994,0.42,0.046,0.1953,0.02344,4.167,9.375,,,,,,,,
"CN(C)CCCOc1ccc(-c2cccc(S(N)(=O)=O)c2-c2nn[nH]n2)cn1 [Example 30, 3-(6-(3-(dimethylamino)propoxy)pyridin-3-yl)-2-(2H-tetrazol-5-yl)benzenesulfonamide]",,,,,,,,0.132,1.67,0.875,3.125,1.563,200,50,
"NS(=O)(=O)c1cccc(-c2ccnc3ccccc23)c1-c1nn[nH]n1 [Example 319, 3-(quinolin-4-yl)-2-(2H-tetrazol-5-yl)benzenesulfonamide]",0.000551,0.0622,0.000886,0.3906,3.906,3.906,3.906,,,,,,,,
"Nc1ccc(-c2ccnc(S(N)(=O)=O)c2-c2nn[nH]n2)cn1 [Example 215, 6-amino-3′-(2H-tetrazol-5-yl)-[3,4′-bipyridine]-2′-sulfonamide]",,,,,,,,0.0909,1.86,,0.1953,0.25,12.5,18.75,0.494
"Cc1ccc(-c2cccc(S(N)(=O)=O)c2-c2nnn[nH]2)cc1 [Example 1, 4′-Methyl-2-(1H-tetrazol-5-yl)-[1,1′-biphenyl]-3-sulfonamide]",,,,,,,,0.00377,0.0648,,1.489,0.7595,123.3,11.96,0.0576
"NS(=O)(=O)c1cccc(-c2cncnc2)c1-c1nn[nH]n1 [Example 42, 3-pyrimidin-5-yl-2-(2H-tetrazol-5-yl)benzenesulfonamide]",,,,,,,,0.543,10.5,,1.563,0.7813,>200,200,9.96
"CS(=O)(=O)Nc1ccc(-c2cccc(S(N)(=O)=O)c2-c2nn[nH]n2)cc1 [Example 82, 4′-[(methylsulfonyl)amino]-2-(2H-tetrazol-5-yl)biphenyl-3-sulfonamide]",,,,,,,,0.00143,0.0222,0.00779,1.953,0.5859,12.5,3.125,
"NS(=O)(=O)c1cccc(-c2cnc3ccoc3c2)c1-c1nn[nH]n1 [Example 311, 3-(furo[3,2-b]pyridin-6-yl)-2-(2H-tetrazol-5-yl)benzenesulfonamide]",0.00111,0.129,0.00816,0.1953,0.7813,4.688,3.906,,,,,,,,
"NS(=O)(=O)c1cccc(-c2ccc3[nH]ncc3c2)c1-c1nn[nH]n1 [Example 313, 3-(1H-indazol-5-yl)-2-(2H-tetrazol-5-yl)benzenesulfonamide]",0.00077,0.0669,0.0134,0.4635,0.5859,7.031,3.906,,,,,,,,
"Nc1ccc(-c2cccc(S(N)(=O)=O)c2-c2nnn[nH]2)cn1 [Example 298, 3-(6-Aminopyridin-3-yl)-2-(1H-tetrazol-5-yl)benzene sulfonamide, TFA salt]",0.0717,0.776,0.251,0.1953,0.04688,12.5,8.333,,,,,,,,
"NS(=O)(=O)c1cccc(-c2cnc3[nH]ccc3c2)c1-c1nn[nH]n1 [Example 312, 3-(1H-pyrrolo[2,3-b]pyridin-5-yl)-2-(2H-tetrazol-5-yl)benzenesulfonamide]",0.00095,0.107,0.00649,0.3906,0.5859,3.125,5.469,,,,,,,,
